Data from patent US12628822B2, “Plant pathogen defence elicitors” (UNIVERSITÉ LIBRE DE BRUXELLES, priority 2020, dated 2026).

Legend:
[1] = biological target: beta-glucosidases enzyme from Aspergillus niger (Aspergillus niger, UniProt A2RAL4); conditions: 100 μM, 1 μM enzyme, 50 Celsius degree, pH 5.5; after instant (less then 5 minutes) incubation
Method: The volume of reaction was set at 500 μl and carried in 2 ml gas tight tubes, shacked constantly at 800 rpm, and the hydrolysis was sampled 100 μl after 5 minutes, 30 minutes and 60 minutes. The hydrolysates were analysed by HPAEC analytics according to Westereng et al. 2013 (vide supra).

Ethylene production = experiment: Ethylene emanation of Arabidopsis seedlings (ETD 300 detector); format: in vivo, Arabidopsis thaliana; conditions: 100 μM sprayed; 3 weeks in vitro seedlings
Method: Ethylene production was analysed in three independent experiments with the ETD 300 detector (Sensor-Sense, Nijmegen, the Netherlands) under a stop-and-flow routine where the gas from one vial accumulated in an interval of 10 min, and then flushed to the detector. Bars in FIG. 15 represent mean and standard deviation.

Sequence of beta-glucosidases enzyme from Aspergillus niger (A2RAL4 20-860): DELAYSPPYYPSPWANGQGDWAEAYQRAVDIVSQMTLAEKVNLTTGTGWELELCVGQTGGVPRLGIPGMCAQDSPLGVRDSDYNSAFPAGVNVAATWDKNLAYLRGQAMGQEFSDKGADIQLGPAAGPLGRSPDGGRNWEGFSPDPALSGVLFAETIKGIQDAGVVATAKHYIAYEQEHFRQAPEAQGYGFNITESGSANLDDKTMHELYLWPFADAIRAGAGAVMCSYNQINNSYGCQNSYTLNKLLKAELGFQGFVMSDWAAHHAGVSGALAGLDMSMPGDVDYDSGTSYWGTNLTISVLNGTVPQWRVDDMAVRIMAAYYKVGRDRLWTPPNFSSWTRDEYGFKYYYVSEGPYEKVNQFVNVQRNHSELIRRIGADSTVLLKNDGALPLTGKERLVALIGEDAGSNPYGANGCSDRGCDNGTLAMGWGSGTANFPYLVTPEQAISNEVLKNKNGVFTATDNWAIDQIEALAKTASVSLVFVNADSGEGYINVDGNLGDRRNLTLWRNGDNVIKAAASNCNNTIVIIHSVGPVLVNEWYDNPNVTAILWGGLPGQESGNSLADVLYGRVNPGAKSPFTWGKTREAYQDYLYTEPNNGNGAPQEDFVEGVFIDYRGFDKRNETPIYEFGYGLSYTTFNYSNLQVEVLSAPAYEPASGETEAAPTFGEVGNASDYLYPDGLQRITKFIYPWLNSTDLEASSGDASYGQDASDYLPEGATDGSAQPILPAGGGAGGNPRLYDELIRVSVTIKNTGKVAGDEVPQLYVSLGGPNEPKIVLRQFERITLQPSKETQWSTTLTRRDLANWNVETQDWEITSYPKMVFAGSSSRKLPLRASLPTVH

SMILES | resistance to digestion by beta-glucosidases [1] | Ethylene production versus mock-treated seedlings (Ethylene production)
O=C1C(CO)OC(OC2C(CO)OC(O)C(O)C2O)C(O)C1O (stereo not drawn) [4-keto-cellobiose] | able to resist the digestion | –
O=C(O)[C@H](O)[C@@H](O)[C@H](O[C@@H]1O[C@H](CO)[C@@H](O)[C@H](O)[C@H]1O)[C@H](O)CO [cellobionic acid, 4-O-β-D-glucopyranosyl-D-gluconic acid] | able to resist the digestion | higher
